Results on 14 compounds are retold here after patent US20250145609A1, “3-SUBSTITUTED PYRIDAZINE COMPOUNDS AS SMARCA2 AND/OR SMARCA4 DEGRADERS” (Aurigene Oncology Limited, priority 2022, published 2025).

Bounds are passed on as bounds.

Assay type in all cases: cell-based
The test system of assay [1] is VCaP cells. Put plainly: Anti proliferative activity in VCaP cell line by CellTiter Glo assay. The conditions noted are these: Homo sapiens, VCaP, 192 h, 8 days incubation, CellTiter Glo luminescence. The procedure:
Example-P1: Determination of Anti Proliferative Activity of Compounds in Cell Lines VCaP by Cell Titer Glo©(Promega) Assay
VCaP (ATCC CRL-2876) cells were seeded in 96 well plate flat black clear bottom plates (Corning, Cat. No 3904) using complete DMEM Medium. Next day, compounds listed in the present invention were added to cells from 10 mM stocks made in DMSO (Sigma Cat no. D2650). Each concentration of compound was tested in triplicate with DMSO concentration at a final percentage not exceeding 0.3 in the cells. After the incubation of VCaP cells with compound for 8 days assay was terminated using 50 μl of CellTiter Glo© reagent (Promega, Cat. no G7572). CellTiter-Glo® Luminescent reagent determines the number of viable cells based on quantitation of ATP present which is an indicator of cell number and metabolic activity. Luminescence readings were taken in Victor-3 instrument. Percent inhibition of proliferation was calculated using formula, % inhibition=100−(luminescence value of test/luminescence value of DMSO control)*100. DMSO control (0%)=Cells in complete media with DMSO; blank=Media alone containing DMSO. EC50 was calculated using graph pad prism software.
Herein the group “A” refers to EC50 values lower than l0 nM, group “B” refers to EC50 values between l0 nM-100 nM (both inclusive) and group “C” refers to EC50 values greater than 100 nM.

The target of assay [2] is T1, SMARCA2 (Homo sapiens, UniProt P51531).
T1 construct: endogenous in cells; host or cells: VCaP (ATCC CRL-2876)
T1 sequence (P51531 whole entry): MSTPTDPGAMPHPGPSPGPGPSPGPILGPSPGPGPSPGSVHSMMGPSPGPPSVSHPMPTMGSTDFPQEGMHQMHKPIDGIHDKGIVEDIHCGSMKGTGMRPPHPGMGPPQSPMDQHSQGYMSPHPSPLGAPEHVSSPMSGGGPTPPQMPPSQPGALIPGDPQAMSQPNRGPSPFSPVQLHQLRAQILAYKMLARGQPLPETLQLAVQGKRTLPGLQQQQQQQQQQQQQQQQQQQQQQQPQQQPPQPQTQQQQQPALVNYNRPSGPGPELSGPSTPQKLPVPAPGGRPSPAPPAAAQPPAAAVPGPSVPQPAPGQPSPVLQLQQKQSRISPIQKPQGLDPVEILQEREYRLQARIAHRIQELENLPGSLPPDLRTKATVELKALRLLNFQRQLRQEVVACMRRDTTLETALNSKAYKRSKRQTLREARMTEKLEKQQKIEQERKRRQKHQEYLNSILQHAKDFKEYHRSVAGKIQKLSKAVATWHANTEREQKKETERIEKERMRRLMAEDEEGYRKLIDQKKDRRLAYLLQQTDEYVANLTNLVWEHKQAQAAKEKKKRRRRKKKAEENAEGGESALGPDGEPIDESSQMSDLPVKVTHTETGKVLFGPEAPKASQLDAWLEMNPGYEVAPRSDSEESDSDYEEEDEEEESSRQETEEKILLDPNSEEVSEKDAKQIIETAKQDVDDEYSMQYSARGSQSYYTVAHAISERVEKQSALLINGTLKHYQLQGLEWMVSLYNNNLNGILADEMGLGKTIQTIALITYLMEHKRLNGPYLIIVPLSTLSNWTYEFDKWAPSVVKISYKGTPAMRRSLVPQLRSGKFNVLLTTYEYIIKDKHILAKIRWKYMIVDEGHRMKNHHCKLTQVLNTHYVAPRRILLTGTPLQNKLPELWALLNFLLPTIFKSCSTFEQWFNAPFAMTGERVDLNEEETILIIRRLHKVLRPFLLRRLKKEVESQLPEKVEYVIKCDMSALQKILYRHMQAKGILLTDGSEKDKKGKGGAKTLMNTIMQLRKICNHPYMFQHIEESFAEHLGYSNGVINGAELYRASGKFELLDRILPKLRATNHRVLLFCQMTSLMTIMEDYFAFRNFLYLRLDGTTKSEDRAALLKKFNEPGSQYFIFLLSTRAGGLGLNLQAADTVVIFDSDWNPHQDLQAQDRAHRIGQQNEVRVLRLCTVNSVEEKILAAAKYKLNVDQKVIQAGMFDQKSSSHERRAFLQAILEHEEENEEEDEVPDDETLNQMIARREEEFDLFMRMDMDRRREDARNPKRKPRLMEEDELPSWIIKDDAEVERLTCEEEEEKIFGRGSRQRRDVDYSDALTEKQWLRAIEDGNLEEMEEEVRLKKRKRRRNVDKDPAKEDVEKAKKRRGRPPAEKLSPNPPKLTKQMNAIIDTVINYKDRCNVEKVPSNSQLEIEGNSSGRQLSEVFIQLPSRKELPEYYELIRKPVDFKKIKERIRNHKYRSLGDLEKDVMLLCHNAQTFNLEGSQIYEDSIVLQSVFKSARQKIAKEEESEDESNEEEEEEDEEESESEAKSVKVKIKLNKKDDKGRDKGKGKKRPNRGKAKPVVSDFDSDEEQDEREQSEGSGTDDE
Put plainly: SMARCA2 degradation in VCaP cells by Western blot. Conditions: at 100 nM, 16 hours. As to the method: (§1) Example-P2: Determination of SMARCA2 and SMARCA4 Degradation in VCaP Cells by Western Blot
(§2) VCaP (ATCC CRL-2876) was plated in 6 well plates using complete Dulbecco's Modified Eagle's Medium. On the third day, compounds of present invention were added to cells from 10 mM stocks made in DMSO (Sigma Cat no. D2650). Each compound was tested at 100 nM concentration with DMSO not exceeding final percentage of 0.3 in the cells. Cells were incubated with the compound for 16 hours followed by harvesting with 1×RIPA lysis buffer (Thermo Fischer, catalogue number #89900) containing protease inhibitor cocktail (Sigma catalogue number #P-8340). Equal amount of protein was loaded on SDS PAGE gel for electrophoresis. Western blot was carried out for detection of either SMARCA2 (Cell signalling technologies, catalogue number #11966) or SMARCA4 antibody (Cell signalling technologies, catalogue number #52251). Beta-Tubulin antibody (Cell signalling technologies, catalogue number #86298) was used as loading control. Percentage of SMARCA2 or SMARCA4 degradation was calculated by using formula: […]

The target of assay [3] is T2, SMARCA4 (Homo sapiens, UniProt P51532).
T2 construct: endogenous in cells; host or cells: VCaP (ATCC CRL-2876)
T2 sequence (P51532 whole entry): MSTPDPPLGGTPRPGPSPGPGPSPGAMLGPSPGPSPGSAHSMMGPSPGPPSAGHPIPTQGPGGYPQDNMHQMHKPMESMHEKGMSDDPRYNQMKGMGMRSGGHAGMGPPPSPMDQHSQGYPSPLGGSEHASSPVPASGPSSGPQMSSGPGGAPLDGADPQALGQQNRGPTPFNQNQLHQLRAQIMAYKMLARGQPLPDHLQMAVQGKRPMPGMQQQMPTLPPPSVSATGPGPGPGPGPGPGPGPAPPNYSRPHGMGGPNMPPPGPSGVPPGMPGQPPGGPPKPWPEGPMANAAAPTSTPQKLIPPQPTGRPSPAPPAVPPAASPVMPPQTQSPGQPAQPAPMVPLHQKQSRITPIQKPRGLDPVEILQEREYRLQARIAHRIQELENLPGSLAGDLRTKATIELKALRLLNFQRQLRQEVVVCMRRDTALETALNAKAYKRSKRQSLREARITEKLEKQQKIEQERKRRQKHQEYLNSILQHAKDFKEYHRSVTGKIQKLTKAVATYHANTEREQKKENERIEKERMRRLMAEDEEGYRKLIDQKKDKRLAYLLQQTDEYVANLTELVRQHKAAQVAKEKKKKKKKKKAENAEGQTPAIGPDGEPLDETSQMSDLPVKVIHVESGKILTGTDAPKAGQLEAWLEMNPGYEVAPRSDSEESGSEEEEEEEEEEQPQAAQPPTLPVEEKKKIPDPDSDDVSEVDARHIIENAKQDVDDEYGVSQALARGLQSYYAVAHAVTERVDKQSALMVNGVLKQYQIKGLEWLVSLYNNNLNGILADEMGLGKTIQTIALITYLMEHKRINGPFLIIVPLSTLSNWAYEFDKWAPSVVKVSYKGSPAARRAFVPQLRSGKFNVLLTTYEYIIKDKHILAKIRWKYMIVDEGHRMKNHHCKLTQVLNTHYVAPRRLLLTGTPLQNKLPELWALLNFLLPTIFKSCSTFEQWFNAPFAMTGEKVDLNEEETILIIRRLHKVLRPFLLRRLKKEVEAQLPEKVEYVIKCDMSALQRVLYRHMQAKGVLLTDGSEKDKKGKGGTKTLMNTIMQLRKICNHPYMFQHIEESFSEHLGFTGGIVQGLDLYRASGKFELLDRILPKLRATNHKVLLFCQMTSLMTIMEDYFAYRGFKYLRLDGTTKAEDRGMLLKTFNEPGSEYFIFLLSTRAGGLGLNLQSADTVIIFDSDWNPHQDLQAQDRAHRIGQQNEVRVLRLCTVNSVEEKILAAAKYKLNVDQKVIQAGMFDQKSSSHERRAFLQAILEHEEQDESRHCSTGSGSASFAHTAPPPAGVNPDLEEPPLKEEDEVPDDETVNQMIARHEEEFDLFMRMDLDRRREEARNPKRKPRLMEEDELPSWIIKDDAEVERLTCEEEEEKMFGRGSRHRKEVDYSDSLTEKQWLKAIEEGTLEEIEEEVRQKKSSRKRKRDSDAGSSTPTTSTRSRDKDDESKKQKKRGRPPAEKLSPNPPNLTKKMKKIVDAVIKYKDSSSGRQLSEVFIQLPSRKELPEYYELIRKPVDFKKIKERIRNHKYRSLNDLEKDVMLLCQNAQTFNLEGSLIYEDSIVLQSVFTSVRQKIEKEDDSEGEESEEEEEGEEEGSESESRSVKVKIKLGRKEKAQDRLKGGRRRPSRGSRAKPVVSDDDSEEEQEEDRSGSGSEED
Put plainly: SMARCA4 degradation in VCaP cells by Western blot. The conditions noted are these: at 100 nM; for Percent SMARCA4 degradation at 0.1 µM: VCaP, 16 h; for Percent degradation SMARCA4: 16 hours. The procedure:
as §1, §2

As to `Cc1ncsc1-c1ccc([C@H](C)NC(=O)[C@@H]2C[C@@H](O)CN2C(=O)[C@@H](NC(=O)CN2CCN(c3ccc(-c4cc(-c5ccccc5O)nnc4N)cc3)C(=O)C2)C(C)(C)C)cc1` [Compound 39, (2S,4R)-1-((S)-2-(2-(4-(4-(3-amino-6-(2-hydroxyphenyl)pyridazin-4-yl)phenyl)-3-oxopiperazin-1-yl)acetamido)-3,3-dimethylbutanoyl)-4-hydroxy-N-((S)-1-(4-(4-methylthiazol-5-yl)phenyl)ethyl)pyrrolidine-2-carboxamide], in assay [1], the EC50 was > 100 nM. The “Percent degradation SMARCA2” value in assay [2] is reported as 78%. Also, the Percent SMARCA4 degradation at 0.1 µM in assay [3] stood at 0%.

In assay [1], `Cc1ncsc1-c1ccc([C@H](C)NC(=O)[C@@H]2C[C@@H](O)CN2C(=O)C(C(C)C)n2cc(-c3ccc(-c4cc(-c5ccccc5O)nnc4N)cc3)cn2)cc1` (stereo partly drawn) [Compound 11, (2S,4R)-1-(2-(4-(4-(3-amino-6-(2-hydroxyphenyl)pyridazin-4-yl)phenyl)-1H-pyrazol-1-yl)-3-methylbutanoyl)-4-hydroxy-N—((S)-1-(4-(4-methylthiazol-5-yl)phenyl)ethyl)pyrrolidine-2-carboxamide] gave an EC50 of 10 to 100 nM. Further, the “Percent degradation SMARCA2” value in assay [2] stood at 98%. In assay [3], this compound had a Percent SMARCA4 degradation at 0.1 µM of 51%.

Turning to `Cc1ncsc1-c1ccc([C@H](C)NC(=O)[C@@H]2C[C@@H](O)CN2C(=O)[C@@H](NC(=O)CN2CCN(c3ccc(-c4cc(-c5ccccc5O)nnc4N)cn3)CC2)C(C)(C)C)cc1` [Compound 25, (2S,4R)-1-((S)-2-(2-(4-(5-(3-amino-6-(2-hydroxyphenyl)pyridazin-4-yl)pyridin-2-yl)piperazin-1-yl)acetamido)-3,3-dimethylbutanoyl)-4-hydroxy-N—((S)-1-(4-(4-methylthiazol-5-yl)phenyl)ethyl)pyrrolidine-2-carboxamide], the EC50 in assay [1] is < 10 nM. In assay [2], the “Percent degradation SMARCA2” value turned out to be 97%. This compound also yielded a Percent SMARCA4 degradation at 0.1 µM in assay [3] of 92%.

`Cc1ncsc1-c1ccc([C@H](C)NC(=O)[C@@H]2C[C@@H](O)CN2C(=O)[C@@H](NC(=O)CN2CC(c3ccc(-c4cc(-c5ccccc5O)nnc4N)cc3)C2)C(C)(C)C)cc1` [Compound 52, (2S,4R)-1-((S)-2-(2-(3-(4-(3-amino-6-(2-hydroxyphenyl)pyridazin-4-yl)phenyl)azetidin-1-yl)acetamido)-3,3-dimethylbutanoyl)-4-hydroxy-N-((S)-1-(4-(4-methylthiazol-5-yl)phenyl)ethyl)pyrrolidine-2-carboxamide]: in assay [1], the EC50 was > 100 nM. The “Percent degradation SMARCA2” value in assay [2] came out at 97%. The compound also showed a Percent SMARCA4 degradation at 0.1 µM in assay [3] of 70%.

In the case of `Cc1ncsc1-c1ccc([C@H](C)NC(=O)[C@@H]2C[C@@H](O)CN2C(=O)[C@@H](NC(=O)CC2CCC(c3ccc(-c4cc(-c5ccccc5O)nnc4N)cc3)CC2)C(C)(C)C)cc1` (mixture of isomers) [Compound 43, (2S,4R)-1-((S)-2-(2-(4-(4-(3-amino-6-(2-hydroxyphenyl)pyridazin-4-yl)phenyl)cyclohexyl)acetamido)-3,3-dimethylbutanoyl)-4-hydroxy-N-((S)-1-(4-(4-methylthiazol-5-yl)phenyl)ethyl)pyrrolidine-2-carboxamide], the concentration for a half-maximal effect (EC50) in assay [1] is < 10 nM. Besides, the “Percent degradation SMARCA2” value in assay [2] was found to be 97%. The compound also displayed a Percent SMARCA4 degradation at 0.1 µM in assay [3] of 86%.

`Cc1ncsc1-c1ccc(CNC(=O)[C@@H]2C[C@@H](O)CN2C(=O)[C@@H](NC(=O)CN2CCC(c3ccc(-c4cc(-c5ccccc5O)nnc4N)cc3)CC2)C(C)(C)C)cc1` [Compound 30, (2S,4R)-1-((S)-2-(2-(4-(4-(3-amino-6-(2-hydroxyphenyl)pyridazin-4-yl)phenyl)piperidin-1-yl)acetamido)-3,3-dimethylbutanoyl)-4-hydroxy-N-(4-(4-methylthiazol-5-yl)benzyl)pyrrolidine-2-carboxamide] had an EC50 in assay [1] of 10 to 100 nM. Further, in assay [2], the “Percent degradation SMARCA2” value is on record as 92%. This compound also registered a Percent SMARCA4 degradation at 0.1 µM in assay [3] of 63%.

Consider `Cc1ncsc1-c1ccc([C@H](C)NC(=O)[C@@H]2C[C@@H](O)CN2C(=O)[C@@H](NC(=O)C(C)N2CCC(c3ccc(-c4cc(-c5ccccc5O)nnc4N)cc3)CC2)C(C)(C)C)cc1` (single isomer, unassigned) [Compound 34], for which, in assay [1], the EC50 is > 100 nM. Besides, the “Percent degradation SMARCA2” value in assay [2] was 91%. Further, the “Percent degradation SMARCA4” value in assay [3] is listed as 0%.

With `Cc1ncsc1-c1ccc([C@H](C)NC(=O)[C@@H]2C[C@@H](O)CN2C(=O)[C@@H](NC(=O)C2CCC(c3ccc(-c4cc(-c5ccccc5O)nnc4N)cc3)CC2)C(C)(C)C)cc1` (single isomer, unassigned) [Compound 42], the EC50 in assay [1] was < 10 nM. Further, the “Percent degradation SMARCA2” value in assay [2] amounted to 99%. Besides, in assay [3], the “Percent degradation SMARCA4” value was 94%.

In the case of `Cc1ncsc1-c1ccc([C@H](C)NC(=O)[C@@H]2C[C@@H](O)CN2C(=O)[C@@H](NC(=O)CC2CCN(c3ccc(-c4cc(-c5ccccc5O)nnc4N)cc3)CC2)C(C)(C)C)cc1` [Compound 38, (2S,4R)-1-((S)-2-(2-(1-(4-(3-amino-6-(2-hydroxyphenyl)pyridazin-4-yl)phenyl)piperidin-4-yl)acetamido)-3,3-dimethylbutanoyl)-4-hydroxy-N-((S)-1-(4-(4-methylthiazol-5-yl)phenyl)ethyl)pyrrolidine-2-carboxamide], the EC50 in assay [1] is 10 to 100 nM. The “Percent degradation SMARCA2” value in assay [2] was 100%. For the same compound, the Percent SMARCA4 degradation at 0.1 µM in assay [3] was 91%.

Regarding `Cc1ncsc1-c1ccc([C@H](C)NC(=O)[C@@H]2C[C@@H](O)CN2C(=O)[C@@H](NC(=O)C(C)N2CCC(c3ccc(-c4cc(-c5ccccc5O)nnc4N)cc3)CC2)C(C)(C)C)cc1` (mixture of isomers) [Compound 32, (2S,4R)-1-((2S)-2-(2-(4-(4-(3-amino-6-(2-hydroxyphenyl)pyridazin-4-yl)phenyl)piperidin-1-yl)propanamido)-3,3-dimethylbutanoyl)-4-hydroxy-N-((S)-1-(4-(4-methylthiazol-5-yl)phenyl)ethyl)pyrrolidine-2-carboxamide], the EC50 in assay [1] is > 100 nM. Further, the “Percent degradation SMARCA2” value in assay [2] stood at 90%. In assay [3], this compound yielded a Percent SMARCA4 degradation at 0.1 µM of 0%.

As to `Cc1ncsc1-c1ccc([C@H](C)NC(=O)[C@@H]2C[C@@H](O)CN2C(=O)[C@@H](NC(=O)CN2CCC(c3ccc(-c4cc(-c5ccccc5O)nnc4N)cc3)CC2C)C(C)(C)C)cc1` (single isomer, unassigned) [Compound 36], in assay [1], the EC50 is < 10 nM. Further, the “Percent degradation SMARCA2” value in assay [2] was 99%. Moreover, the Percent SMARCA4 degradation at 0.1 µM in assay [3] stood at 86%.

Regarding `Cc1ncsc1-c1ccc([C@H](C)NC(=O)[C@@H]2C[C@@H](O)CN2C(=O)[C@@H](NC(=O)CN2CCC(c3ccc(-c4cc(-c5ccccc5O)nnc4N)cc3)CC2C)C(C)(C)C)cc1` (mixture of isomers) [Compound 35, (2S,4R)-1-((2S)-2-(2-(4-(4-(3-amino-6-(2-hydroxyphenyl)pyridazin-4-yl)phenyl)-2-methylpiperidin-1-yl)acetamido)-3,3-dimethylbutanoyl)-4-hydroxy-N-((S)-1-(4-(4-methylthiazol-5-yl)phenyl)ethyl)pyrrolidine-2-carboxamide], the EC50 in assay [1] was < 10 nM. The “Percent degradation SMARCA2” value in assay [2] came to 97%. The Percent SMARCA4 degradation at 0.1 µM in assay [3] was 88%.

Consider `Cc1ncsc1-c1ccc([C@H](C)NC(=O)[C@@H]2C[C@@H](O)CN2C(=O)[C@@H](NC(=O)CC2CCC(c3ccc(-c4cc(-c5ccccc5O)nnc4N)cc3)CC2)C(C)(C)C)cc1` (single isomer, unassigned) [Compound 44], for which the EC50 in assay [1] was < 10 nM. Also, the “Percent degradation SMARCA2” value in assay [2] is reported as 98%. In addition, in assay [3], the Percent SMARCA4 degradation at 0.1 µM stood at 89%.

For `Cc1ncsc1-c1ccc([C@H](C)NC(=O)[C@@H]2C[C@@H](O)CN2C(=O)[C@@H](NC(=O)CN2CCC(O)(c3ccc(-c4cc(-c5ccccc5O)nnc4N)cc3)CC2)C(C)(C)C)cc1` [Compound 48, (2S,4R)-1-((S)-2-(2-(4-(4-(3-amino-6-(2-hydroxyphenyl)pyridazin-4-yl)phenyl)-4-hydroxypiperidin-1-yl)acetamido)-3,3-dimethylbutanoyl)-4-hydroxy-N-((S)-1-(4-(4-methylthiazol-5-yl)phenyl)ethyl)pyrrolidine-2-carboxamide], the EC50 in assay [1] lay within 10 to 100 nM. In assay [2], the “Percent degradation SMARCA2” value was 97%. Besides, the Percent SMARCA4 degradation at 0.1 µM in assay [3] was 20%.
